Data on 5 compounds can be found in patent publication US4753881A, “Purified enzyme and process therefor” (Eli Lilly and Company, priority 1986, dated 1988).

For assay [1], the target named is T1, hydroxylase activity of the expandase-hydroxylase enzyme (Hapsidospora chrysogena, UniProt P11935).
T1 construct: prepared by sonicating fresh cell suspensions of Cephalosporium acremonium in buffer at pH 7-8; endogenous in cells; host or cells: Cephalosporium acremonium cells (crude cell extract, then chromatographic purification)
T1 sequence (P11935 1-332): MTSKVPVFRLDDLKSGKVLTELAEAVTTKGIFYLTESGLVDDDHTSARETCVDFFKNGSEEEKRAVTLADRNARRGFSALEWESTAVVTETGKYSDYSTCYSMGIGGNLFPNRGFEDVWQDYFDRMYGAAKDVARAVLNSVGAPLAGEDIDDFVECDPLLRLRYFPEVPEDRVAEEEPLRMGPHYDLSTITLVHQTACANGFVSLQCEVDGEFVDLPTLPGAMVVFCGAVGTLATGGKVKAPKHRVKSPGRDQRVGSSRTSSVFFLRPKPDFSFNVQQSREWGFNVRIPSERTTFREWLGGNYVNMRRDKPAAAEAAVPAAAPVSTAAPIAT
Description: Enzyme activity assay (HPLC): hydroxylase-catalyzed reaction, DAC from DAOC. It counts as biochemical, Cephalosporium acremonium. As to conditions: for Maximal reactivation/stimulation of hydroxylase activity, initial to final activity: DTT 1.0 mM, ascorbate 0.25 mM, ATP 0.05 mM, purified enzyme (step 3); for Effect on hydroxylase function of the purified enzyme: present in the incubation mixture. The source says:
(§1) The activity of the enzyme, which is a reflection of its purity, is expressed herein in units (U) of activity. One unit of expandase activity is defined as the amount of the enzyme required to cause formation of 1 μmole of DAOC plus DAC per minute from penicillin N. One unit of hydroxylase activity is defined as the amount of enzyme required to cause formation of 1 μmole of DAC per minute from DAOC.
(§2) The purity of the enzyme and the extent of purification during the course of the process can be measured by determining the expandase and hydroxylase activities of the chromatographic fractions via high performance liquid chromatography (HPLC) and by analyzing protein bands of chromatographic fractions via SDS-PAGE. The expandase-catalyzed reaction is conducted for 15 minutes at 30° C. with 0.28 mM penicillin N, 0.60 mM α-ketoglutarate (αKG), 0.06 mM ferrous sulfate, […], 1.00 mM dithiothreitol, 0.05 mM ATP and 0.0003-0.003 units of the enzyme in 1 ml of 50 mM Tris-HCl, pH 7.5. The hydroxylase-catalyzedreaction is conducted at 36° C. in the same medium with deacetoxycephalosporin C at a concentration of 0.05 mM instead of penicillin N.
(§3) The enzymatic reactions were interrupted by the addition of 1 ml of ethyl alcohol. The precipitate is separated by centrifugation at 4,000×g for 5 minutes and the supernatant containing the enzyme reaction products assayed by HPLC as follows. The expandase activity is determined by monitoring formation of both DAOC and DAC from penicillin N because of the apparent bifunctionality of the enzyme. The hydroxylase activity is determined by monitoring the formation of DAC from DAOC.
(§4) Aliquots (20 to 100 μl ) of the supernatant solutions are assayed for DAOC and DAC by HPLC using external standards.
A preferred HPLC system comprises the components: Model 721 system controller, Model 730 data module, Model 510EF pumps, Model 710B Waters Intelligent Sample Processor and a Lambda-Max Model 481 LC spectrophotometer (Waters Assoc., Milford, Mass.). DAC and DAOC are preferably separated by a radially packed compressed μBondapak-NH4column (0.8×10 cm) (Waters Assoc.) with a mobile phase of 2% acetic acid-0-4% methyl alcohol-6-7% acetonitrile-87-92% water; pH 3.8, a flow rate of 1.5-2.0 ml/min. and detection at 260 nm (cephalosporin chromophore). The assays are reproducible with 2% deviations for duplicate analyses of both the expandase and the hydroxylase catalyzed reactions. […]

The target in assay [2] is T2, deacetoxycephalosporin C synthetase (expandase) (Hapsidospora chrysogena, UniProt P11935).
T2 construct: prepared by sonicating fresh cell suspensions of Cephalosporium acremonium in buffer at pH 7-8; endogenous in cells; host or cells: Cephalosporium acremonium cells (crude cell extract, then chromatographic purification)
T2 sequence (P11935 1-332): T1 sequence (P11935 1-332)
Description: Enzyme activity assay (HPLC): expandase-catalyzed reaction, DAOC plus DAC from penicillin N. The format is biochemical, Cephalosporium acremonium. As to conditions: for Maximal reactivation/stimulation of expandase activity, initial to final activity: DTT 1.0 mM, ascorbate 0.25 mM, ATP 0.05 mM, purified enzyme (step 3); for Effect on expandase function of the purified enzyme: present in the incubation mixture.
Text: as §1, §2, §3, §4
A preferred HPLC system comprises the components: Model 721 system controller, Model 730 data module, Model 510EF pumps, Model 710B Waters Intelligent Sample Processor and a Lambda-Max Model 481 LC spectrophotometer (Waters Assoc., Milford, Mass.). DAC and DAOC are preferably separated by a radially packed compressed μBondapak-NH4column (0.8×10 cm) (Waters Assoc.) with a mobile phase of 2% acetic acid-0-4% methyl alcohol-6-7% acetonitrile-87-92% water; pH 3.8, a flow rate of 1.5-2.0 ml/min. and detection at 260 nm (cephalosporin chromophore). The assays are reproducible with 2% deviations for duplicate analyses of both the expandase and the hydroxylase catalyzed reactions.
For expandase assays, quantitation for DAC (in addition to that of DAOC) is corrected for penicillin N due to their coelution.

SMILES strings stand for the structures.

On to `O[C@H](CS)[C@H](O)CS` (racemic) [DTT, dithiothreitol], for which, in assay [1], the “Reactivation of hydroxylase activity” value is reported as “reversibly reactivated”; the “Maximal reactivation/stimulation of hydroxylase activity, initial to final activity” value lay within 0 to 0.23 U × 10^-3; the “Effect on hydroxylase function of the purified enzyme” value (“Effect on hydroxylase function” below) is recorded as “stimulated”. In addition, in assay [2], the “Reactivation of expandase activity” value is recorded as “reversibly reactivated”; the “Maximal reactivation/stimulation of expandase activity, initial to final activity” value is 0 to 50 U × 10^-3; the “Effect on expandase function of the purified enzyme” value (“Effect on expandase function” below) was “stimulated”.

Take `O=C(O)c1cc(SSc2ccc([N+](=O)[O-])c(C(=O)O)c2)ccc1[N+](=O)[O-]` [5,5'-dithiobis-2-nitrobenzoic acid]: the “Effect on hydroxylase function” value in assay [1] is recorded as “inhibited”. Besides, in assay [2], the “Effect on expandase function” value is reported as “inhibited”.

As for `Nc1ncnc2c1ncn2[C@@H]1O[C@H](COP(=O)(O)OP(=O)(O)OP(=O)(O)O)[C@@H](O)[C@H]1O` [ATP], in assay [1], the “Maximal reactivation/stimulation of hydroxylase activity, initial to final activity” value lay within 0.57 to 0.61 U × 10^-3 and the “Effect on hydroxylase function” value is “stimulated”. Further, in assay [2], the “Maximal reactivation/stimulation of expandase activity, initial to final activity” value is 38 to 52 U × 10^-3 and the “Effect on expandase function” value is reported as “stimulated”.

For `O=C1O[C@H]([C@@H](O)CO)C(O)=C1O` [Ascorbate], in assay [1], the “Reactivation of hydroxylase activity” value is on record as “reversibly reactivated”; the “Maximal reactivation/stimulation of hydroxylase activity, initial to final activity” value was in the range of 0 to 0.81 U × 10^-3; the “Effect on hydroxylase function” value is “stimulated”. Further, in assay [2], the “Reactivation of expandase activity” value is recorded as “reversibly reactivated”; the “Maximal reactivation/stimulation of expandase activity, initial to final activity” value lay in the range of 0 to 90 U × 10^-3; the “Effect on expandase function” value is given as “stimulated”.

Consider `[Zn+2]` [zinc ion], for which the “Effect on hydroxylase function” value in assay [1] was “inhibited”. Moreover, the “Effect on expandase function” value in assay [2] was “inhibited”.
